Assays:
transglutaminase (TGase) = test: Measurement of TG (TGase inhibitory activity, monodansyl cadaverine / N,N-dimethylcasein fluorescence, FDSS 3000); format: biochemical
Method: For example, the method described in the Example can be performed.
The compound of the present invention (10 mM, 1 μL) was taken in a 96-well plate (Nunc, 96 Well Black Plate with Clear Bottom), an enzyme reaction solution (100 mM HEPES-NaOH, pH 7.5, 1 mM CaCl2, 20 μM monodansyl cadaverine, 0.05 mg/mL N,N-dimethylcasein, 5 μg/mL TGase) (0.1 ml) was added and the mixture was sufficiently mixed without making foams. The mixture was set on a fluorescence drug screening system FDSS 3000 (Hamamatsu Photonics K.K.), and changes in the fluorescence wavelength per unit time at 340 nm were measured, based on which the TGase inhibitory activity of the compound of the present invention was calculated. As a control, change in the fluorescence when 1 μL of DMSO (dimethyl sulfoxide) was added instead of the compound of the present invention was taken as 100, and TG50 was when the activity decreased to half due to the compound of the present invention.

[1] = system: Truncated N-terminal huntington 150 Q-EGFP-Neuron 2a cells; test: Measurement of x-Fold (polyglutamine aggregation inhibitory activity); format: cell-based
Method: In the present invention, the polyglutamine aggregation inhibitory activity (x-Fold) can be measured, for example, by the method described in the Example.
The number of the aggregated cells, and the total number of cells were counted by Array Scan V T1 (manufactured by Cellomics, Pittuburg, USA), and the ratio of the aggregated cells to the total number of cells was determined (x-Fold). […]

[2] = TGase activity with compound (10 mM, 1 μL in 0.1 ml enzyme reaction solution), DMSO control taken as 100
[3] = TGase inhibitory activity value, Table 1
[4] = polyglutamine aggregation inhibitory activity, Table 1
[5] = ratio of aggregated cells to total number of cells, compound 20 μM, 20 hr, almost 1 without compound, smaller = stronger inhibition

Row | TGase activity remaining (% of DMSO control = 100) (transglutaminase (TGase); [2]) | TGase activity remaining (% of DMSO control = 100) (transglutaminase (TGase); [3]) | Compound | x-Fold [1, 4] | x-Fold [1, 5] | further results
1 | 99 | 99 | 4,4′-(phenyl piperazino-O,O-ethoxyboryl)benzylether [Example 197] | 1.02 | 1.02 | –
2 | 28 | 28 | NCCSB(c1ccc(Cl)cc1F)c1ccc(Cl)cc1F [Example 1, 2-aminoethylthio bis(4-chloro-2-fluorophenyl)borane] | 0.95 | 0.95 | –
3 | 76 | – | CN(C)CCOB(c1ccc(C(F)(F)F)cc1)c1ccc(C(F)(F)F)cc1 [Example 69, 2-dimethylaminoethyl bis(4-trifluoromethylphenyl)borinate] | – | 1.02 | TGase activity remaining (% of DMSO control = 100) (transglutaminase (TGase); TGase inhibitory activity value, Table 1, listed as 5034): 76; x-Fold ([1]; polyglutamine aggregation inhibitory activity, Table 1, listed as 5034): 1.02
4 | 97 | – | OB(c1ccc(C(F)(F)F)cc1)c1ccc(C(F)(F)F)cc1 [Example 75, bis(4-trifluoromethylphenyl)borinic acid] | – | 0.88 | TGase activity remaining (% of DMSO control = 100) (transglutaminase (TGase); TGase inhibitory activity value, Table 1, listed as 6001): 97; x-Fold ([1]; polyglutamine aggregation inhibitory activity, Table 1, listed as 6001): 0.88
5 | 117 | 117 | OB(c1ccc(F)c(Cl)c1)c1ccc(F)c(Cl)c1 [Example 76, bis(3-chloro-4-fluorophenyl)borinic acid] | 0.78 | 0.78 | –
6 | 98 | – | NCCOB(c1ccc(F)c(Cl)c1)c1ccc(F)c(Cl)c1 [Example 77, 2-aminoethyl-bis(3-chloro-4-fluorophenyl)borinate] | – | 0.91 | TGase activity remaining (% of DMSO control = 100) (transglutaminase (TGase); TGase inhibitory activity value, Table 1, listed as 6006): 98; x-Fold ([1]; polyglutamine aggregation inhibitory activity, Table 1, listed as 6006): 0.91
7 | 104 | 104 | CN(C)CCOB(c1ccc(F)c(Cl)c1)c1ccc(F)c(Cl)c1 [Example 78, 2-dimethylaminoethyl bis(3-chloro-4-fluorophenyl)borinate] | 1.02 | 1.02 | –
8 | 97 | 97 | OB(c1ccc(Cl)cc1F)c1ccc(Cl)cc1F [Example 79, bis(4-chloro-2-fluorophenyl)borinic acid] | 0.88 | 0.88 | –
9 | 93 | 93 | OB(c1ccc(F)c(F)c1)c1ccc(F)c(F)c1 [Example 80, bis(3,4-difluorophenyl)borinic acid] | 0.90 | 0.90 | –
10 | 97 | 97 | OB(c1cc(F)c(F)c(F)c1)c1cc(F)c(F)c(F)c1 [Example 81, bis(3,4,5-trifluorophenyl)borinic acid] | 0.92 | 0.92 | –
11 | 101 | – | OB(c1ccc(Cl)c(F)c1)c1ccc(Cl)c(F)c1 [Example 83, bis(3-fluoro-4-chlorophenyl)borinic acid] | – | 0.92 | TGase activity remaining (% of DMSO control = 100) (transglutaminase (TGase); TGase inhibitory activity value, Table 1, listed as 6012): 101; x-Fold ([1]; polyglutamine aggregation inhibitory activity, Table 1, listed as 6012): 0.92
12 | 91 | 91 | NCCOB(c1ccc(Cl)cc1F)c1ccc(Cl)cc1F [Example 84, 2-aminoethyl bis(4-chloro-2-fluorophenyl)borinate] | 0.92 | 0.92 | –
13 | 103 | – | NCCOB(c1ccc(F)c(Cl)c1)c1ccc(F)c(Cl)c1 [Example 86, 2-aminoethyl bis(3-chloro-4-fluorophenyl)borinate] | – | 0.99 | TGase activity remaining (% of DMSO control = 100) (transglutaminase (TGase); TGase inhibitory activity value, Table 1, listed as 6015): 103; x-Fold ([1]; polyglutamine aggregation inhibitory activity, Table 1, listed as 6015): 0.99
14 | 91 | 91 | NCCOB(c1ccc(F)c(F)c1)c1ccc(F)c(F)c1 [Example 87, 2-aminoethyl bis(3,4-difluorophenyl)borinate] | 1.02 | 1.02 | –
15 | – | – | OB(c1ccccc1)c1cccc(COCc2ccccc2B(O)c2ccccc2)c1 [Example 124, (2-phenylhydroxyborylbenzyl)(3-(phenylhydroxyboryl)benzyl)ether] | – | 0.96 | x-Fold ([1]; polyglutamine aggregation inhibitory activity, Table 1, listed as 656): 0.96
16 | – | – | FC(F)(F)c1ccc(C(OB(c2ccccc2)c2cc(B(OC(c3ccc(C(F)(F)F)cc3)c3ccccn3)c3ccccc3)cc(B(OC(c3ccc(C(F)(F)F)cc3)c3ccccn3)c3ccccc3)c2)c2ccccn2)cc1 (centres unmarked) [Example 132, 1,3,5-tri(2-pyridyl-4-trifluoromethylphenylmethoxyphenylboryl)benzene] | 0.95 | 0.95 | –
17 | – | – | Cc1ccc(Cl)cc1B(OCCNCc1ccccc1)c1cc(Cl)ccc1C [Example 164, di(3-chloro-6-methylphenyl)benzylaminoethylborinate] | – | 0.67 | –
18 | – | – | Cc1ccc(Cl)cc1B(OCCN)c1cc(Cl)ccc1C [Example 166, di(3-chloro-6-methylphenyl)aminoethylborinate] | – | 0.70 | –
19 | – | – | NCC(=O)OB(c1ccccc1)c1ccc(Oc2ccc(B(OC(=O)CN)c3ccccc3)cc2)cc1 [Example 169, di((phenylglycine-O,N boryl)phenyl)ether] | – | 0.78 | –
20 | – | – | CN(C)CCOB(c1ccccc1)c1cccc(COCc2cccc(B(OCCN(C)C)c3ccccc3)c2)c1 [Example 172, bis(3,3′(phenyldimethylaminoethoxyboryl)benzyl)ether] | – | 1.22 | x-Fold ([1]; polyglutamine aggregation inhibitory activity, Table 1, listed as 2024): 1.22
21 | – | – | Cc1ccc(B(OCCN(C)C)c2ccc(C)c(Cl)c2)cc1Cl [Example 207, di(3-chloro-4-methylphenyl)dimethylaminoethylborinate] | 0.91 | 0.91 | –
22 | – | – | Cc1ccc(B(OCC(N)Cc2ccccc2)c2ccc(C)c(Cl)c2)cc1Cl (centres unmarked) [Example 208, di(3-chloro-4-methylphenyl)-2-benzyl-2-aminoethylborinate] | 0.67 | 0.67 | –
23 | – | – | NC(COB(c1ccccc1)c1ccccc1)Cc1ccccc1 [Example 212, diphenyl(R) 2-benzyl-2-aminoethyl borinate] | – | 0.75 | x-Fold ([1]; polyglutamine aggregation inhibitory activity, Table 1, listed as 3073): 0.75
24 | – | – | NC(COB(c1ccccc1)c1ccccc1)Cc1ccccc1 [Example 213, diphenyl(S) 2-benzyl-2-aminoethyl borinate] | – | 1.00 | x-Fold ([1]; polyglutamine aggregation inhibitory activity, Table 1, listed as 3075): 1.00
25 | – | – | OB(c1ccc(C(F)(F)F)cc1)c1ccc(C(F)(F)F)cc1 [Example 230, di(trifluoromethylphenyl)borinic acid] | – | 1.03 | x-Fold ([1]; polyglutamine aggregation inhibitory activity, Table 1, listed as 4138): 1.03
26 | – | – | OB(c1cccs1)c1cccs1 [Example 253] | – | 1.11 | –
27 | – | – | OB(O)c1cccc2ccccc12 [Example 324, naphthaleneboronic acid] | 0.76 | 0.76 | –
28 | – | – | NCCOB(c1ccccc1)c1cccc(COCCc2ccccc2B(OCCN)c2ccccc2)c1 [Example 369] | 1.10 | 1.10 | –
29 | – | – | NCCOB(c1ccc(Oc2ccccc2)cc1)c1ccc(Oc2ccc(B(OCCN)c3ccc(Oc4ccccc4)cc3)cc2)cc1 [Example 398, bis(4,4′-(phenoxyphenyl-aminoethoxyboryl)phenyl)ether] | – | 0.88 | x-Fold ([1]; polyglutamine aggregation, Truncated N-terminal huntington 150 Q-EGFP-Neuron 2a cells): 0.88
30 | – | – | Cc1ccc(B(OC(=O)C(N)CC(N)=O)c2ccc(C)c(Cl)c2)cc1Cl (centres unmarked) [Example 448] | – | 0.95 | –

From patent publication US8853424B2 (Japan Science and Technology Agency, priority 2008, dated 2014)
